Data as given in publication PMC6081452, “Downstream Products are Potent Inhibitors of the Heparan Sulfate 2-O-Sulfotransferase” (Scientific Reports, 2018).

Molecular target: T1, glyc-HS2ST (glycosylated human HS2ST), WT (Homo sapiens, UniProt Q7LGA3)
T1 construct: the human HS2ST catalytic domain region comprising of 328 amino acid residues; His8 (N, cleaved yes); AviTag (N, cleaved yes); superfolder GFP (N, cleaved yes); made in house; host or cells: HEK293-F (transient transfection, secreted)
T1 sequence (Q7LGA3 29-356 limits assumed): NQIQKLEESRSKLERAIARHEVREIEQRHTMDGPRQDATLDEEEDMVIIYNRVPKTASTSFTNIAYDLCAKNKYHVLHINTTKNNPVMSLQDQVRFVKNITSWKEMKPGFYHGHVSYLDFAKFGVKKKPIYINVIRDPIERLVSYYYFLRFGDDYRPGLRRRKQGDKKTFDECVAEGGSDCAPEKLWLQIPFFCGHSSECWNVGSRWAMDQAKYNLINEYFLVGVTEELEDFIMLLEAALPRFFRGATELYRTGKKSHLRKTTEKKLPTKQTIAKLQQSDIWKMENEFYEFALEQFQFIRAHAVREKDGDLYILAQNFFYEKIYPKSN
Assay: BLI equilibrium binding, glyc-HS2ST WT
Conditions: BLI saturation binding curves, biotin-PEG4-linked hexasaccharide immobilised on sensor, n = 3, ± standard error of fit, 25 °C, PBS pH 7.8
Source text: HS-protein binding studies often utilize biologically-derived oligosaccharides of heterogeneous length and sulfation[34],[35]; however, the synthesis of oligosaccharides with defined length and specific sulfation patterns has recently become possible. We employed biolayer interferometry (BLI) to determine equilibrium surface binding constants (KD) for HS2ST with synthetic HS hexasaccharides (Fig. 1 and Supplementary Table 1). The HS compounds were attached to the BLI biosensor surface to conserve sample and to ensure a significant signal upon protein binding. The HS compounds contained a biotinylated PEG4 linker at the reducing terminus, enhancing the likelihood of a consistent presentation of the linear glycan on the sensor surface, in contrast to immobilizations via intra-chain modifications. […]
An expression construct was generated encoding the truncated catalytic domain of human HS2ST as an NH2-terminal fusion protein in the pGEn2 expression vector essentially as described in prior studies. […] The recombinant human HS2ST was expressed as a soluble secreted protein by transient transfection of suspension culture HEK293-F cells (FreeStyle^TM 293-Fcells, Thermo Fisher Scientific, Waltham MA) maintained at 0.5–3.0 × 10^6 cells/ml in a humidified CO2 platform shaker incubator at 37 °C with 55% humidity. […]

Kd: 138 ± 19 nM
Substance: GlcNS-GlcA-GlcNS-IdoA2S-GlcNS-GlcA~ [Compound 2]
